Assay results reported in article PMC12670426 (Journal of Medicinal Chemistry, 2025).
Where two headings read alike, the source gives them in different places.

Columns and labels:
[1] = target: T1, human galectin-1 (Gal-1, full length) (Homo sapiens, UniProt P09382); test: Competitive fluorescence polarization assay, Gal-1; assay type: binding
T1 construct: Gal-1 is a prototype galectin consisting of a single CRD and was used in full length; 6xHis tag with TEV protease site (N, cleaved yes); made in house; host or cells: BL21 Escherichia coli (pET-15b)
T1 sequence (P09382 2-135): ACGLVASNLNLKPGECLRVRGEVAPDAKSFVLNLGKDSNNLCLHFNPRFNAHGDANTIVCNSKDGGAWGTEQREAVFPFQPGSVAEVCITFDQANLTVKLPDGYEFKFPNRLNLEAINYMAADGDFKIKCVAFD
In short: (§1)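 Competitive fluorescence polarization (anisotropy) with a fluorescent probe; full-length Gal-1 and C-terminal CRD construct of Gal-3. Read after 30–60 min incubation at 25 °C. Kd fitted with Wang's exact cubic competitive model, rmin/rmax fixed from direct binding.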

[2] = target: T2, human galectin-3C (Gal-3C, C-terminal CRD of galectin-3) (Homo sapiens, UniProt P17931); test: Competitive fluorescence polarization assay, Gal-3C; assay type: binding
T2 construct: only the C-terminal domain was used (Gal-3C); 6xHis tag with TEV protease site (N, cleaved yes); made in house; host or cells: BL21 Escherichia coli (pET-15b)
T2 sequence (P17931 118-248 limits assumed): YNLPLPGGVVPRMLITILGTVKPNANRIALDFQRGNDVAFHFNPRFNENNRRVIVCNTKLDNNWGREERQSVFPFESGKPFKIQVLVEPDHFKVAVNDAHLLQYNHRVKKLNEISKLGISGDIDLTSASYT
In short: as §1

[3] = Microsomal stability assay, rat liver microsomes; assay type: in vitro ADME; conditions: pooled liver microsomes, pH 7.4, rat liver microsomes 0.5 mg/mL, NADPH
Experimental: Microsomal stability was determined using 0.5 mg/mL of pooled human, mouse, or rat liver microsomes (Thermo Fisher Scientific) in 90 mM TRIS-Cl buffer (pH 7.4) containing 2 mM NADPH and 2 mM MgCl2. Test compounds (10 μM) were added, and the resulting mixture was incubated at 37 °C for 10, 60, 120, and 180 min. The reactions were terminated by the addition of four volumes of ice-cold methanol, followed by vigorous mixing. The samples were left at −20 °C for 30 min and then stored at 4 °C overnight. The next day, samples were centrifuged, and supernatants were diluted with four volumes of 30% methanol in water. Zero time points were prepared by adding ice-cold methanol to the mixture of compounds and cofactors prior to the addition of microsomes. The samples were then analyzed using the Echo-MS system (SCIEX) with MRM transition monitoring, except for compound 3af, which was analyzed by LC–MS/MS as described in the plasma stability assay.

[4] = Cytotoxicity assay, HepG2; assay type: cell-based; conditions: human, HepG2 cells, viability dye, flow cytometry
Experimental: (§2) To evaluate in vitro cytotoxicity and support its potential application in inflammatory and fibrotic disease models, the following panel of cell lines, representing the relevant biological systems, was used: HEK293, HepG2, THP1, Jurkat E6.1, and LX2. HEK293, HepG2, and Jurkat E6.1 cells were seeded at 400,000 cells/mL, THP1 cells at 500,000 cells/mL, and LX2 cells at 200,000 cells/mL in 96-well plates (cell culture-treated, VWR) in 100 μL/well. Cells were treated with the tested compounds in a serial dilution (300, 100, 33.3, 11.1, and 3.7 μM) for 24 h. Untreated cells served as negative controls to establish the baseline viability threshold. Cell viability was assessed using a viability dye (Zombie Violet Fixable Viability Kit, BioLegend) following the manufacturer’s instructions and analyzed by flow cytometry (see below).
(§3) Cells or beads from screening assays prepared for flow cytometry were analyzed by the CytoFlex S instrument (Beckman Coulter). Data acquisition was performed using CytExpert software (v2.5, Beckman Coulter). Debris was excluded by forward and side scatter gating, followed by doublet exclusion. Data were analyzed using FlowJo software (v10, BD Biosciences).

[5] = Cytotoxicity assay, Jurkat E6.1; assay type: cell-based; conditions: human, Jurkat E6.1 cells, viability dye, flow cytometry
Experimental: as §2, §3

Cytotoxicity assay, LX2 = assay type: cell-based; conditions: human, LX2 cells, viability dye, flow cytometry
Experimental: as §2, §3

[6] = target: T3, intracellular Gal-3 in THP1 cells (Homo sapiens, UniProt P17931); test: Intracellular Gal-3 target engagement in THP1 cells (flow cytometry, MFI); assay type: cell-based; conditions: 2 h
T3 construct: Untreated cells served as negative and baseline controls representing maximum intracellular Gal-3 levels; endogenous in cells; host or cells: THP1 (monocyte-like or PMA-differentiated macrophage-like)
T3 sequence (P17931 whole entry): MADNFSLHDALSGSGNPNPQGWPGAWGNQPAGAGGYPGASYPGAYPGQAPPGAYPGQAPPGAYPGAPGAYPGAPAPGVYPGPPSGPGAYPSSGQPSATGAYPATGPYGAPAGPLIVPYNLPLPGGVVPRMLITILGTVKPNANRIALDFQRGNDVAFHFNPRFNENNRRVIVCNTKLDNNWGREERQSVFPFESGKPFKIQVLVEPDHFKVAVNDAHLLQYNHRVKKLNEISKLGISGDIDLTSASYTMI
Experimental: THP1 cells were used to assess the binding of the tested compounds to Gal-3. Cells were either maintained in suspension as undifferentiated monocyte-like cells or differentiated into macrophage-like cells by overnight treatment with phorbol 12-myristate 13-acetate (PMA, Sigma-Aldrich) at a final concentration of 10 ng/mL. […] Untreated cells served as negative and baseline controls representing maximum intracellular Gal-3 levels. Cells were then harvested and intracellularly stained either with galectin-3 monoclonal antibody eF660 (Invitrogen, Thermo Fisher Scientific) or a relevant isotype antibody (Invitrogen, Thermo Fisher Scientific) for flow cytometric analyses (see below). A dose-dependent decrease in Gal-3 signal upon compound treatment was used to assess intracellular target engagement expressed as median fluorescent intensity (MFI).
as §3

IC50 ([1]; CSV supplement, unrounded mean, read-out: Gal1_IC50_mean_uM): 4.34 µM
Kd ([1]; CSV supplement, unrounded mean, read-out: Gal1_Kd_mean_uM): 2.18 µM
Kd ([1]; competitive fluorescence polarization, mean ± SD, read-out: Kd Gal-1): 2.2 ± 0.3 µM
IC50 ([1]; four-parameter logistic model, mean ± SD, read-out: IC50 Gal-1): 4.3 ± 0.2 µM
IC50 ([2]; CSV supplement, unrounded mean, read-out: Gal3C_IC50_mean_uM): 0.0577 µM
Kd ([2]; CSV supplement, unrounded mean, read-out: Gal3C_Kd_mean_uM): 0.00571 µM
Kd ([2]; competitive fluorescence polarization, mean ± SD, read-out: Kd Gal-3C): 0.0057 ± 0.002 µM
IC50 ([2]; four-parameter logistic model, mean ± SD, read-out: IC50 Gal-3C): 0.058 ± 0.01 µM
microsomal CLint at 10 μM [3]: < 2 µL/min/mg
intracellular Gal-3 signal (MFI), macrophage-like THP1 cells ([6]; (+)PMA differentiated THP1, 3.7–300 μM): concentration-dependent reduction
intracellular Gal-3 signal (MFI), monocyte-like THP1 cells ([6]; (−)PMA undifferentiated THP1, 3.7–300 μM): concentration-dependent reduction
Structure (SMILES): CC(=O)N(c1cc(C(=O)O)cc2[nH]ccc12)[C@@H]1O[C@H](CO)[C@@H](S[C@@H]2O[C@H](CO)[C@H](O)[C@H](n3cc(-c4cccc(F)c4)nn3)[C@H]2O)[C@H](O)[C@H]1O [Compound 11, N-[4-S-(3-Deoxy-3-(4-(3-fluorophenyl)-1H-1,2,3-triazol-1-yl)-β-D-galactopyranosyl)-4-thio-β-D-glucopyranosyl]-N-(6-carboxy-1H-indol-4-yl)acetamide]
CC50 at 24 h [4]: > 300 µM
CC50 at 24 h [5]: > 300 µM
CC50 at 24 h (Cytotoxicity assay, LX2): > 300 µM
